Test results: patent US20240252488A1 (KOREA RESEARCH INSTITUTE OF CHEMICAL TECHNOLOGY, priority 2020, published 2024)

How the values were obtained:
MLKL [1] = target: T1, MLKL (Homo sapiens, UniProt Q8NB16); experiment: Measurement of binding affinity with MLKL receptor (competitive binding assay, Kd); design: made in house; host or cells: HEK 293 cell line (T7 phage in E. coli BL21-derived host is also described)
T1 sequence (Q8NB16 1-471): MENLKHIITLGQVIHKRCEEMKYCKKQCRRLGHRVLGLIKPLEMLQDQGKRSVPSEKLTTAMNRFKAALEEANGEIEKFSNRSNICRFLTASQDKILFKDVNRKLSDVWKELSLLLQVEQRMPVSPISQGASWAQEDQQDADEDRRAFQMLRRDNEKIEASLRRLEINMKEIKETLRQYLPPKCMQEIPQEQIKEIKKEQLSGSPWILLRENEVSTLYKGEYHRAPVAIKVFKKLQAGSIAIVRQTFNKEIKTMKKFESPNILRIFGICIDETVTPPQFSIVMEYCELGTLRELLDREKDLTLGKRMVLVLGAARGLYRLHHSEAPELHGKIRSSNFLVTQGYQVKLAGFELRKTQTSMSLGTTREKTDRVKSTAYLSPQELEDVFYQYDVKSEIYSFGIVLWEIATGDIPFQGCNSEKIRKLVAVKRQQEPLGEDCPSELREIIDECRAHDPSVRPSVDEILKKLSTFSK
How it was run: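 Competition binding of kinase tagged with DNA for qPCR detection, expressed in HEK 293 cells, against immobilized ligand on beads. Final DMSO 0.9%. Kd derived from kinase amount in eluates measured by qPCR.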

MLKL [2] = target: T1, MLKL; experiment: MLKL degradation assay in HepG2 cell line (western blot); type: cell-based; design: endogenous in cells; host or cells: HepG2 or HaCaT; settings: cell line not given; for Degradation assay (Degradation %) 1 μM: compound 1 μM; for Degradation assay (Degradation %) 10 μM: compound 10 μM
How it was run: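 Degradation is judged from MLKL band intensity on immunoblots of HepG2 lysates taken after 20-24 hours of compound at final 1 or 10 μM.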

FADD−/− Jurkat cells = experiment: Necroptosis inhibition assay, TNF-α-induced necroptosis (CellTiter-Glo 2.0); type: cell-based, human; settings: TNF-α 15 ng/mL; for Necroptosis inhibition assay (Rescue %) 1 μM: compound 1 μM; for Necroptosis inhibition assay (Rescue %) 10 μM: compound 10 μM
How it was run: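 Tested at three fixed concentrations (0.1, 1, 10 μM final) with a 30-minute room-temperature preincubation ahead of 15 ng/mL TNF-α challenge lasting 20 to 24 hours. Inhibition rate and cytotoxicity derive from ATP luminescence.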

SMILES | Kd (MLKL [1]) [nM] | Degradation assay (Degradation %) 1 μM (MLKL [2]) [%] | Degradation assay (Degradation %) 10 μM (MLKL [2]) [%] | Necroptosis inhibition assay (Rescue %) 1 μM (FADD−/− Jurkat cells) [%] | Necroptosis inhibition assay (Rescue %) 10 μM (FADD−/− Jurkat cells) [%] | Necroptosis inhibition assay (Rescue %) 1 μM (FADD−/− Jurkat cells; FADD−/− Jurkat cells) [%] | Necroptosis inhibition assay (Rescue %) 10 μM (FADD−/− Jurkat cells; FADD−/− Jurkat cells) [%]
Nc1ncc(-c2cnn(C3CCN(CCOC4CCN(C(=O)CC5CCN(c6cccc7c6C(=O)N(C6CCC(=O)NC6=O)C7=O)CC5)CC4)CC3)c2)nc1C(=O)O[C@@H](C(=O)Nc1ccc(F)cc1)c1ccccc1 (stereo partly drawn) [TDH-371, (R)-2-((4-fluorophenyl)amino)-2-oxo-1-phenylethyl 3-amino-6-(1-(1-(2-((1-(2-(1-(2-(2,6-dioxopiperidin-3-yl)-1,3-dioxoisoindolin-4-yl)piperidin-4-yl)acetyl)piperidin-4-yl)oxy)ethyl)piperidin-4-yl)-1H-pyrazol-4-yl)pyrazine-2-carboxylate] | 3.7 | 82.38 | 83.26 | 35.76 | 25.74 | – | –
Nc1ncc(-c2cnn(C3CCN(C[C@H]4CC[C@H](CNC(=O)C5CCN(c6cccc7c6C(=O)N(C6CCC(=O)NC6=O)C7=O)CC5)CC4)CC3)c2)nc1C(=O)O[C@@H](C(=O)Nc1ccc(F)cc1)c1ccccc1 (stereo partly drawn) [TDH-349, (R)-2-((4-fluorophenyl)amino)-2-oxo-1-phenylethyl 3-amino-6-(1-(1-(((1r,4r)-4-((1-(2-(2,6-dioxopiperidin-3-yl)-1,3-dioxoisoindolin-4-yl)piperidine-4-carboxamido)methyl)cyclohexyl)methyl)piperidin-4-yl)-1H-pyrazol-4-yl)pyrazine-2-carboxylate] | 3.7 | 93.71 | 92.68 | 45.54 | 42.11 | – | –
Nc1ncc(-c2ccc(N3CCN(CCOCCOCCNC(=O)COc4ccc5c(c4)C(=O)N(C4CCC(=O)NC4=O)C5=O)CC3)nc2)nc1C(=O)OC(C(=O)Nc1ccc(F)cc1)c1ccccc1 (stereo not shown) [TDH-262, 2-((4-fluorophenyl)amino)-2-oxo-1-phenylethyl 3-amino-6-(6-(4-(2-(2-(2-(2-((2-(2,6-dioxopiperidin-3-yl)-1,3-dioxoisoindolin-5-yl)oxy)acetamido)ethoxy)ethoxy)ethyl)piperazin-1-yl)pyridin-3-yl)pyrazine-2-carboxylate] | 65 | 58.43 | 75.8 | 22.59 | 4.02 | – | –
Nc1ncc(-c2cnn(C3CCN(C(=O)C4CCN(C(=O)CNc5cccc6c5C(=O)N(C5CCC(=O)NC5=O)C6=O)CC4)CC3)c2)nc1C(=O)OC(C(=O)Nc1ccc(F)cc1)c1ccccc1 (stereo not shown) [TDH-275, 2-((4-fluorophenyl)amino)-2-oxo-1-phenylethyl 3-amino-6-(1-(1-(1-((2-(2,6-dioxopiperidin-3-yl)-1,3-dioxoisoindolin-4-yl)glycyl)piperidine-4-carbonyl)piperidin-4-yl)-1H-pyrazol-4-yl)pyrazine-2-carboxylate] | 4.9 | 57.84 | 63.11 | 69.59 | 69.98 | – | –
Nc1ncc(-c2ccc(N3CCN(CCOCCOCCNC(=O)C4CCN(c5cccc6c5C(=O)N(C5CCC(=O)NC5=O)C6=O)CC4)CC3)nc2)nc1C(=O)OC(C(=O)Nc1ccc(F)cc1)c1ccccc1 (stereo not shown) [TDH-257, 2-((4-fluorophenyl)amino)-2-oxo-1-phenylethyl 3-amino-6-(6-(4-(2-(2-(2-(1-(2-(2,6-dioxopiperidin-3-yl)-1,3-dioxoisoindolin-4-yl)piperidine-4-carboxamido)ethoxy)ethoxy)ethyl)piperazin-1-yl)pyridin-3-yl)pyrazine-2-carboxylate] | 96 | 7.56 | 26.63 | 24.61 | 21.71 | – | –
Nc1ncc(-c2cnn(C3CCN(CC4CN(C(=O)COc5ccc6c(c5)C(=O)N(C5CCC(=O)NC5=O)C6=O)CCO4)CC3)c2)nc1C(=O)O[C@@H](C(=O)Nc1ccc(F)cc1)c1ccccc1 (stereo partly drawn) [TDH-390, (R)-2-((4-fluorophenyl)amino)-2-oxo-1-phenylethyl 3-amino-6-(1-(1-((4-(2-((2-(2,6-dioxopiperidin-3-yl)-1,3-dioxoisoindolin-5-yl)oxy)acetyl)morpholin-2-yl)methyl)piperidin-4-yl)-1H-pyrazol-4-yl)pyrazine-2-carboxylate] | 2.6 | 80.07 | 93.00 | 46.50 | 36.13 | – | –
Nc1ncc(-c2cnn(C3CCN(CCC4CCN(C(=O)COc5cccc6c5C(=O)N(C5CCC(=O)NC5=O)C6=O)CC4)CC3)c2)nc1C(=O)O[C@@H](C(=O)Nc1ccc(F)cc1)c1ccccc1 (stereo partly drawn) [TDH-200, (R)-2-((4-fluorophenyl)amino)-2-oxo-1-phenylethyl 3-amino-6-(1-(1-(2-(1-(2-((2-(2,6-dioxopiperidin-3-yl)-1,3-dioxoisoindolin-4-yl)oxy)acetyl)piperidin-4-yl)ethyl)piperidin-4-yl)-1H-pyrazol-4-yl)pyrazine-2-carboxylate] | 1 | 74.03 | 60.19 | 76.41 | 44.64 | – | –
Nc1ncc(-c2cnn(C3CCN(CCOCCNC(=O)C4CCN(c5ccc6c(c5)C(=O)N(C5CCC(=O)NC5=O)C6=O)CC4)CC3)c2)nc1C(=O)O[C@@H](C(=O)Nc1ccc(F)cc1)c1ccccc1 (stereo partly drawn) [TDH-129, (R)-2-((4-fluorophenyl)amino)-2-oxo-1-phenylethyl 3-amino-6-(1-(1-(2-(2-(1-(2-(2,6-dioxopiperidin-3-yl)-1,3-dioxoisoindolin-5-yl)piperidine-4-carboxamido)ethoxy)ethyl)piperidin-4-yl)-1H-pyrazol-4-yl)pyrazine-2-carboxylate] | 7.1 | 32.68 | 57.68 | 49.22 | 67.79 | – | –
Nc1ncc(-c2cnn(C3CCN(CCCN4CCN(C(=O)CNc5ccc6c(c5)C(=O)N(C5CCC(=O)NC5=O)C6=O)CC4)CC3)c2)nc1C(=O)OC(C(=O)Nc1ccc(F)cc1)c1ccccc1 (stereo not shown) [TDH-242, 2-((4-fluorophenyl)amino)-2-oxo-1-phenylethyl 3-amino-6-(1-(1-(3-(4-((2-(2,6-dioxopiperidin-3-yl)-1,3-dioxoisoindolin-5-yl)glycyl)piperazin-1-yl)propyl)piperidin-4-yl)-1H-pyrazol-4-yl)pyrazine-2-carboxylate] | 2.5 | 75.75 | 66.84 | 71.4 | 44.8 | – | –
Nc1ncc(-c2cnn(C3CCN(C[C@H]4CC[C@H](CNC(=O)CNc5cccc6c5C(=O)N(C5CCC(=O)NC5=O)C6=O)CC4)CC3)c2)nc1C(=O)O[C@@H](C(=O)Nc1ccc(F)cc1)c1ccccc1 (stereo partly drawn) [TDH-347, (R)-2-((4-fluorophenyl)amino)-2-oxo-1-phenylethyl 3-amino-6-(1-(1-(((1r,4r)-4-((2-((2-(2,6-dioxopiperidin-3-yl)-1,3-dioxoisoindolin-4-yl)amino)acetamido)methyl)cyclohexyl)methyl)piperidin-4-yl)-1H-pyrazol-4-yl)pyrazine-2-carboxylate] | 1.9 | 77.96 | 85.06 | 23.88 | 12.87 | – | –
Nc1ncc(-c2cnn(C3CCN(CCOC4CCN(C(=O)c5ccc(C(=O)NC6CCC(=O)NC6=O)cc5)CC4)CC3)c2)nc1C(=O)O[C@@H](C(=O)Nc1ccc(F)cc1)c1ccccc1 (stereo partly drawn) [TDH-538, (R)-2-((4-fluorophenyl)amino)-2-oxo-1-phenylethyl 3-amino-6-(1-(1-(2-((1-(4-((2,6-dioxopiperidin-3-yl)carbamoyl)benzoyl)piperidin-4-yl)oxy)ethyl)piperidin-4-yl)-1H-pyrazol-4-yl)pyrazine-2-carboxylate] | 0.31 | 66.34 | 54.70 | – | – | 24.02 | 21.52
